Results filed as inconclusive are left out. Active and inactive are the calls of the source.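 Rule for the calls: active = fitted curve reaches activity 50 in the expected rising direction at or below the top valid tested dose; inconclusive = no clear call, values can overlap the other calls; inactive = activity in the wrong direction, and the rest.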

What is called AC50 is the concentration giving half of the maximal activity seen.

One experiment has as its target Virion infectivity factor (Human immunodeficiency virus type 1 group M subtype B (isolate BH10)) + Virion infectivity factor (Human immunodeficiency virus type 1 group M subtype B (isolate BRU/LAI)) + Virion infectivity factor (Human immunodeficiency virus type 1 group M subtype B (isolate PCV12)) + Virion infectivity factor (Human immunodeficiency virus type 1 group M subtype B (isolate HXB2)) (UniProt P69720+P69721+P69722+P69723). Kind of experiment: dose-dependent disruption of HIV Vif self-association – imaging, HEK293T, cherry-picks, dose response (AID 652241).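 Note: imaged cell signal that rises when Vif self-association is disrupted.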 The note with it: HEK293T Vif multimerization imaging, 24 h.
As to `COc1ccc(-c2nc3cnccn3c2NC2CCCCC2)cc1-c1cccc(Cl)c1`, the AC50 was 14.5 µM.

Consider `Cc1nnc2ccc(-c3ccc(NS(=O)(=O)c4ccc(Cl)s4)cc3)nn12`, for which the AC50 was 14.5 µM.

With `Cc1ccc(NC(=O)/C=C/c2ccco2)nc1`, the AC50 was 8.31 µM.

For the molecule `COc1ccc2nc(N3C(=O)C(O)=C(C(=O)c4ccco4)C3c3ccccc3OC)sc2c1` (centres undefined), the AC50 is > 19.5 µM (inactive).

As to `COc1cccc(-c2cc(NC=O)c3ncc(-c4cc(OC)c(OC)c(OC)c4)n3c2)c1`, the AC50 is 4.25 µM.

Regarding `COc1cc(-c2cnc3c(NC=O)cc(-c4ccccc4Cl)cn23)cc(OC)c1OC`, the half-maximal activity concentration (AC50) was 3.03 µM.

Take `CCN(CC)C(=O)c1sc2nc(-c3cccs3)cc(-c3cccs3)c2c1N`: the AC50 was > 19.5 µM (inactive).

As to `COCCNC(=O)c1nn2c(C(F)(F)F)cc(-c3ccccc3)nc2c1Cl`, the AC50 was > 19.5 µM (inactive).

Regarding `COc1ccc(-c2ccc3c(N)c(C(=O)c4ccc(OC)c(OC)c4)sc3n2)cc1`, the AC50 is > 19.5 µM (inactive).

For the molecule `CCOc1ccccc1NC(=O)Cn1nnc(C(=O)NCc2cccs2)c1N`, the AC50 was 5.28 µM.

As to `Cc1ccc2c(COC(=O)c3ccccc3OC(F)F)cc(=O)oc2c1`, the AC50 was 12 µM.

Take `COc1cc(-c2cnc3c(NC=O)cc(-c4ccccc4)cn23)cc(OC)c1OC`: the AC50 was 2.45 µM.

With `COc1cc(C2C3=C(COC3=O)Oc3cc4c(cc32)OCO4)cc(OC)c1O` (centres undefined), the AC50 is 0.849 µM.

Take `Cc1cc(C)cc(NC(=O)CCc2nc3sc4c(c3c(=O)[nH]2)CCCC4)c1`: the AC50 is 14.6 µM.

On to `O=C(NCc1cccnc1)NC1(C(F)(F)F)Oc2ccc(Cl)cc2O1` (centres undefined), for which the AC50 was 9.05 µM.

`Cn1c(=O)[nH]c(=O)c2c1nc([N+](=O)[O-])n2Cc1ccccc1`: the concentration at half-maximal activity (AC50) was 5.03 µM.

As to `CCCc1cc(=O)oc2cc(OCc3cc(OC)c(OC)c(OC)c3)c(Cl)cc12`, the AC50 was 19.1 µM.

The same experiment, now with this note: HEK293T Vif multimerization imaging, 24 h; at 6.8 µM (top of the series).
In the case of `NC(c1csc(Nc2ccc(C(=O)c3ccccc3)cc2)n1)C1CCCCC1` (centres undefined), the “activity, higher = inhibition” value is “inactive”.

With `COc1ccc(-c2nc(CS(=O)(=O)CC(=O)NCCc3ccccc3)c(C)o2)cc1`, the “activity, higher = inhibition” value is “inactive”.

Turning to `CCc1cccc2cc3c(N)c(C(=O)Nc4ccc(S(=O)(=O)N5CCCC5)cc4)sc3nc12`, the “activity, higher = inhibition” value was “inactive”.

For the molecule `COc1cc2c3nnc(-c4ccc(F)cc4)c-3cn(Cc3ccc(F)cc3)c2cc1OC`, the “activity, higher = inhibition” value is “inactive”.

For the molecule `COc1ccc(OC)c(NC(=O)c2cc3ccccc3cc2OC)c1`, the “activity, higher = inhibition” value is “inactive”.

The same experiment, now with this note: HEK293T Vif multimerization imaging, 24 h; at 19.5 µM (top of the series).
Regarding `O=C1c2ccccc2C(Nc2ccc(S(=O)(=O)N3CCOCC3)cc2)N1c1ccccn1` (centres undefined), the “activity, higher = inhibition” value is “inactive”.

In the case of `COc1ccc(CCNC(=O)[C@@H](NC(N)=O)C(C)C)cc1`, the “activity, higher = inhibition” value was “inactive”.

Turning to `COc1cccc(CNc2ccc3c(c2)CCC3)c1`, the “activity, higher = inhibition” value is “inactive”.

In the case of `Cc1nnc(NC(=O)Cn2nc(C)c3ccccc3c2=O)s1`, the “activity, higher = inhibition” value is “inactive”.

Regarding `CCN1c2ccccc2NC2C1C(C(C)=O)C(=O)N2c1ccc(Cl)cc1` (centres undefined), the “activity, higher = inhibition” value was “inactive”.

Turning to `O=C(c1ccc2c(c1)OCO2)N(CC1CCCO1)C1(C(=O)NC2CCCC2)CCCCC1` (centres undefined), the “activity, higher = inhibition” value was “inactive”.

As to `O=S(=O)(Nn1cnnc1)c1ccccc1`, the “activity, higher = inhibition” value was “inactive”.

As to `O=C(CCCn1c(=S)[nH]c2ccccc2c1=O)N1CCN(c2cccc(Cl)c2)CC1`, the “activity, higher = inhibition” value was “inactive”.

In the case of `COc1ccc(C(=O)Nc2c(Cl)cc(Cl)cc2C(=O)N2CCOCC2)cc1`, the “activity, higher = inhibition” value is “inactive”.

In the case of `CC(C)C(NC(=O)c1ccccc1NC(=O)C(C)(C)C)C(=O)N1CCOCC1` (centres undefined), the “activity, higher = inhibition” value is “inactive”.

Take `CC(O)CN(C)CC/C=C1/c2ccccc2CSc2ccccc21` (centres undefined): the “activity, higher = inhibition” value was “inactive”.

With `COC(=O)c1ccc2c(=O)n(Cc3ccco3)c(SCC(=O)Nc3cc(C)on3)nc2c1`, the “activity, higher = inhibition” value was “inactive”.

Consider `CCC(C)C(=O)Nn1c(C2CC2)nc2cc(OC)c(OC)cc2c1=O` (centres undefined), for which the “activity, higher = inhibition” value was “inactive”.

Turning to `CCn1cc(CN2CCCC(C(=O)Nc3cccc(-c4cc5ccccc5[nH]4)c3)C2)c(C)n1` (centres undefined), the “activity, higher = inhibition” value is “inactive”.

With `NCCCC[C@H](N[C@@H](CCc1ccccc1)C(=O)O)C(=O)N1CCC[C@H]1C(=O)O`, the “activity, higher = inhibition” value is “inactive”.

Consider `COc1ccc(-c2csc(-c3cccnc3)n2)cc1C`, for which the “activity, higher = inhibition” value is “inactive”.

With `COc1ccc(-c2nnc(SCC(=O)N3CCCc4ccccc43)o2)cc1OC`, the “activity, higher = inhibition” value is “inactive”.

In the case of `COc1cc(/C=C/C(=O)O)ccc1S(=O)(=O)N1CCCc2ccccc21`, the “activity, higher = inhibition” value was “inactive”.

Take `Cc1ccc(C(C)C)c(OCC#CCN2CCOCC2)c1`: the “activity, higher = inhibition” value was “inactive”.

On to `CCC(=O)N(CCC1(C(C)C)CCOC(C)(C)C1)Cc1ccco1` (centres undefined), for which the “activity, higher = inhibition” value was “inactive”.

Turning to `Cc1cc(-c2nnc(SCC(=O)c3ccc(Cl)cc3)o2)no1`, the “activity, higher = inhibition” value was “inactive”.

Take `O=C(CCCSc1nc2ccccc2c(=O)[nH]1)c1ccccc1`: the “activity, higher = inhibition” value is “inactive”.

For the molecule `O=C(CCNC(=O)c1ccco1)Nc1ccc(OC(F)(F)F)cc1`, the “activity, higher = inhibition” value was “inactive”.

Take `CCOc1ncccc1C(=O)OCc1ccccc1`: the “activity, higher = inhibition” value is “inactive”.

`CCCCOc1ncnc2c1[nH]c1ccccc12`: the “activity, higher = inhibition” value was “inactive”.

In the case of `COC(CNC(=O)C1CCN(C(=O)c2cc3oc(C)cc3n2Cc2c(F)cccc2Cl)CC1)OC`, the “activity, higher = inhibition” value is “inactive”.

With `NS(=O)(=O)c1ccc(-c2ccc(/C=C3\SC(=O)NC3=O)o2)cc1`, the “activity, higher = inhibition” value was “inactive”.

As to `NCCCCCC(=O)Nc1ccncc1`, the “activity, higher = inhibition” value was “inactive”.

`O=C(Nc1ccnc(-c2cccnc2)n1)c1cccs1`: the “activity, higher = inhibition” value was “inactive”.

For `COc1ccc(OC)c(NC(=O)c2nc(-c3ccccc3)oc2C)c1`, the “activity, higher = inhibition” value was “inactive”.

Take `O=C(Cc1ccccc1)OCC(=O)c1ccc(F)cc1`: the “activity, higher = inhibition” value was “inactive”.

Turning to `COc1ccc(CNC(=O)CN2C(=O)NC(c3ccccc3)(c3ccccc3)C2=O)cc1`, the “activity, higher = inhibition” value was “inactive”.

On to `Cc1ccc(Nc2cc(=O)[nH]c(=O)[nH]2)cc1C`, for which the “activity, higher = inhibition” value is “inactive”.

For the molecule `O=C1/C(=C/c2ccc(N3CCCC3)cc2)NC(=S)N1C1CC1`, the “activity, higher = inhibition” value was “inactive”.

Consider `Cc1nc(SCC(=O)N2CCCC2=O)nc(C)c1C`, for which the “activity, higher = inhibition” value was “inactive”.

`COc1ccc(N=C2NC(=O)S/C2=C\c2ccc(N(C)C)cc2)cc1`: the “activity, higher = inhibition” value is “inactive”.

For the molecule `COc1ccc(NC(=O)Cn2nnc(C(=O)Nc3ccccc3C)c2N)cc1`, the “activity, higher = inhibition” value is “inactive”.

On to `CCCn1c(=O)c(C(=O)Nc2ncccc2O)c(O)c2ccccc21`, for which the “activity, higher = inhibition” value was “inactive”.

For `Cc1ccc(NC(=O)Cn2ncn3c(cc4ccccc43)c2=O)c(C)c1`, the “activity, higher = inhibition” value is “inactive”.

`O=C(C1COc2ccccc2O1)N1CCN(Cc2ccc3c(c2)OCO3)CC1` (centres undefined): the “activity, higher = inhibition” value is “inactive”.

With `CC(C)C(=O)N=C1SC2CS(=O)(=O)CC2N1Cc1ccccc1` (centres undefined), the “activity, higher = inhibition” value is “inactive”.

With `COc1ccc(C(=O)NC2CC3CCCC(C2)N3Cc2ccccc2)cc1OC` (centres undefined), the “activity, higher = inhibition” value is “inactive”.

On to `COc1cccc(NC(=O)CSc2nnc(Cc3ccc(OC)c(OC)c3)o2)c1`, for which the “activity, higher = inhibition” value was “inactive”.

Consider `COc1ccc(CNC(=O)Nc2cccs2)cc1OC`, for which the “activity, higher = inhibition” value is “inactive”.

For the molecule `CC(C(=O)O)c1ccc(N2Cc3ccccc3C2=O)cc1` (centres undefined), the “activity, higher = inhibition” value is “inactive”.

Consider `O=C(c1cc(COc2cccc3cccnc23)on1)N1CCC[C@H]1CO`, for which the “activity, higher = inhibition” value was “inactive”.

In the case of `CCOc1ccc(S(=O)(=O)NCc2ccccn2)cc1NC(=O)c1ccccc1`, the “activity, higher = inhibition” value was “inactive”.

Take `COc1c2ccoc2nc2c(OC)c(OC[C@@H](O)C(C)(C)O)ccc12`: the “activity, higher = inhibition” value was “inactive”.

With `COc1ccc(CNC(=O)COC(=O)c2cc(S(=O)(=O)N3CCOCC3)ccc2O)cc1OC`, the “activity, higher = inhibition” value is “inactive”.

On to `CNC(=O)COc1ccccc1C(=O)Nc1ccc2c(c1)oc1ccccc12`, for which the “activity, higher = inhibition” value was “inactive”.

Take `CC(NC(=O)CSc1nc2c(c(C(F)(F)F)n1)CCc1ccccc1-2)c1ccccc1` (centres undefined): the “activity, higher = inhibition” value was “inactive”.

Turning to `CN(C)c1ccc(C(O)Cc2nc3ccccc3n2C)cc1` (centres undefined), the “activity, higher = inhibition” value is “inactive”.

Consider `CN1CCc2c(sc(NC(=O)c3cc(Cl)sc3Cl)c2C(N)=O)C1`, for which the “activity, higher = inhibition” value is “inactive”.

With `O=C(NCc1ccccn1)c1ccc(Cn2c(=S)[nH]c3ccc(Br)cc3c2=O)cc1`, the “activity, higher = inhibition” value is “inactive”.

Turning to `O=c1sc(N2CCN(c3ccc(F)cc3)CC2)nc2ccsc12`, the “activity, higher = inhibition” value was “inactive”.

Consider `CC1Cc2ccccc2N1C(=O)COC(=O)c1ccccc1NCCO` (centres undefined), for which the “activity, higher = inhibition” value is “inactive”.

As for `Cc1ccc(N(C)S(=O)(=O)c2ccc(-c3ccc(=O)[nH]n3)s2)cc1C`, the “activity, higher = inhibition” value is “inactive”.

Take `CCN1C(=O)NC(c2ccccc2)C1=O` (centres undefined): the “activity, higher = inhibition” value was “inactive”.

With `Cc1cccc2cc(CN(CC3CCCO3)C(=O)NC3CCCCC3)c(=O)[nH]c12` (centres undefined), the “activity, higher = inhibition” value is “inactive”.

As to `S=C(Nc1ccccc1)N1CCn2c(nc3ccccc32)C1`, the “activity, higher = inhibition” value was “inactive”.

For `CN1CCN(C(=S)c2ccc(OCC(=O)Nc3cccc(C(F)(F)F)c3)cc2)CC1`, the “activity, higher = inhibition” value was “inactive”.

Take `COc1cc2[nH]c(=O)n(CCCC(=O)NC3CCCCC3)c(=O)c2cc1OC`: the “activity, higher = inhibition” value is “inactive”.

(Values after PubChem BioAssay AID652241 (Broad Institute, 2013).)
